How the values were obtained:
Assay in all cases: relative viability (nuclei count vs DMSO), 5 days (fraction); higher = more cells survive
NCI-H1944 = test system: NCI-H1944
How it was run: (§1)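 Lung cancer cell lines in 1536-well plates were dosed by pin tool the day after seeding, either with one drug alone or with a fixed anchor-drug dose plus five library-drug doses (not always all listed) in √10 steps. After 5 days, cells were fixed and their nuclei stained in one step (final 0.05% Triton X-100, 1% formaldehyde, 1 ug/ml Hoechst), then counted on 4× images. Relative viability is the nuclei count in treated wells divided by that in vehicle wells. Values are medians of duplicate plates.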

ChaGo-K-1 = test system: ChaGo-K-1
How it was run: as §1

LC-2-ad = test system: LC-2-ad
How it was run: as §1

NCI-H1793 = test system: NCI-H1793
How it was run: as §1

UMC-11 = test system: UMC-11
How it was run: as §1

NCI-H1734 = test system: NCI-H1734
How it was run: as §1

NCI-H838 = test system: NCI-H838
How it was run: as §1

NCI-H2405 = test system: NCI-H2405
How it was run: as §1

HCC-78 = test system: HCC-78
How it was run: as §1

ABC-1 = test system: ABC-1
How it was run: as §1

EMC-BAC-2 = test system: EMC-BAC-2
How it was run: as §1

HCC-15 = test system: HCC-15
How it was run: as §1

COR-L23 = test system: COR-L23
How it was run: as §1

HCC-366 = test system: HCC-366
How it was run: as §1

HARA = test system: HARA
How it was run: as §1

NCI-H2228 = test system: NCI-H2228
How it was run: as §1

NCI-H2009 = test system: NCI-H2009
How it was run: as §1

NCI-H2023 = test system: NCI-H2023
How it was run: as §1

NCI-H23 = test system: NCI-H23
How it was run: as §1

SK-LU-1 = test system: SK-LU-1
How it was run: as §1

NCI-H2126 = test system: NCI-H2126
How it was run: as §1

A-427 = test system: A-427
How it was run: as §1

NCI-H1993 = test system: NCI-H1993
How it was run: as §1

SMILES: O=C(O)c1ccc(-c2c[nH]c3ncc(-c4ccccc4)cc23)cc1C1CCCC1 + COc1cc2c(Oc3ccc(NC(=O)C4(C(=O)Nc5ccc(F)cc5)CC4)cc3F)ccnc2cc1OCCCN1CCOCC1 [Foretinib] (partner 0.25 µM)
- relative viability (NCI-H1944; first compound 0.04 µM): 0.923
- relative viability (NCI-H1944; first compound 0.1265 µM): 0.988
- relative viability (NCI-H1944; first compound 0.4 µM): 0.911
- relative viability (NCI-H1944; first compound 1.265 µM): 0.807
- relative viability (ChaGo-K-1; first compound 0.04 µM): 0.995
- relative viability (ChaGo-K-1; first compound 0.1265 µM): 0.928
- relative viability (ChaGo-K-1; first compound 0.4 µM): 0.833
- relative viability (ChaGo-K-1; first compound 1.265 µM): 0.863
- relative viability (LC-2-ad; first compound 0.04 µM): 0.973
- relative viability (LC-2-ad; first compound 0.1265 µM): 0.935
- relative viability (LC-2-ad; first compound 0.4 µM): 0.798
- relative viability (LC-2-ad; first compound 1.265 µM): 0.702
- relative viability (NCI-H1793; first compound 0.04 µM): 0.66
- relative viability (NCI-H1793; first compound 0.1265 µM): 0.75
- relative viability (NCI-H1793; first compound 0.4 µM): 0.702
- relative viability (NCI-H1793; first compound 1.265 µM): 0.602
- relative viability (UMC-11; first compound 0.04 µM): 1.01
- relative viability (UMC-11; first compound 0.1265 µM): 1.02
- relative viability (UMC-11; first compound 0.4 µM): 0.982
- relative viability (UMC-11; first compound 1.265 µM): 0.77
- relative viability (NCI-H1734; first compound 0.04 µM): 0.859
- relative viability (NCI-H1734; first compound 0.1265 µM): 1.04
- relative viability (NCI-H1734; first compound 0.4 µM): 0.731
- relative viability (NCI-H1734; first compound 1.265 µM): 0.766
- relative viability (NCI-H838; first compound 0.04 µM): 1.02
- relative viability (NCI-H838; first compound 0.1265 µM): 1.17
- relative viability (NCI-H838; first compound 0.4 µM): 1.05
- relative viability (NCI-H838; first compound 1.265 µM): 0.923
- relative viability (NCI-H2405; first compound 0.04 µM): 1.05
- relative viability (NCI-H2405; first compound 0.1265 µM): 1.1
- relative viability (NCI-H2405; first compound 0.4 µM): 1.02
- relative viability (NCI-H2405; first compound 1.265 µM): 0.747
- relative viability (HCC-78; first compound 0.1265 µM): 0.584
- relative viability (HCC-78; first compound 0.4 µM): 0.524
- relative viability (HCC-78; first compound 1.265 µM): 0.531
- relative viability (ABC-1; first compound 0.04 µM): 1.02
- relative viability (ABC-1; first compound 0.1265 µM): 1.24
- relative viability (ABC-1; first compound 0.4 µM): 1.04
- relative viability (ABC-1; first compound 1.265 µM): 0.936
- relative viability (EMC-BAC-2; first compound 0.04 µM): 0.997
- relative viability (EMC-BAC-2; first compound 0.1265 µM): 1.08
- relative viability (EMC-BAC-2; first compound 0.4 µM): 0.97
- relative viability (EMC-BAC-2; first compound 1.265 µM): 0.857
- relative viability (HCC-15; first compound 0.04 µM): 1.11
- relative viability (HCC-15; first compound 0.1265 µM): 1.04
- relative viability (HCC-15; first compound 0.4 µM): 0.92
- relative viability (HCC-15; first compound 1.265 µM): 0.678
- relative viability (COR-L23; first compound 0.04 µM): 1.02
- relative viability (COR-L23; first compound 0.1265 µM): 1.19
- relative viability (COR-L23; first compound 0.4 µM): 0.943
- relative viability (COR-L23; first compound 1.265 µM): 0.636
- relative viability (HCC-366; first compound 0.04 µM): 0.948
- relative viability (HCC-366; first compound 0.1265 µM): 0.951
- relative viability (HCC-366; first compound 0.4 µM): 0.894
- relative viability (HCC-366; first compound 1.265 µM): 0.881
- relative viability (HARA; first compound 0.04 µM): 0.836
- relative viability (HARA; first compound 0.1265 µM): 0.952
- relative viability (HARA; first compound 0.4 µM): 0.811
- relative viability (HARA; first compound 1.265 µM): 0.796
- relative viability (NCI-H2228; first compound 0.04 µM): 0.783
- relative viability (NCI-H2228; first compound 0.1265 µM): 0.915
- relative viability (NCI-H2228; first compound 0.4 µM): 0.871
- relative viability (NCI-H2228; first compound 1.265 µM): 0.576
- relative viability (NCI-H2009; first compound 0.04 µM): 1.22
- relative viability (NCI-H2009; first compound 0.1265 µM): 1.22
- relative viability (NCI-H2009; first compound 0.4 µM): 1.22
- relative viability (NCI-H2009; first compound 1.265 µM): 0.968
- relative viability (NCI-H2023; first compound 0.04 µM): 0.988
- relative viability (NCI-H2023; first compound 0.1265 µM): 1
- relative viability (NCI-H2023; first compound 0.4 µM): 0.895
- relative viability (NCI-H2023; first compound 1.265 µM): 0.749
- relative viability (NCI-H23; first compound 0.04 µM): 1.1
- relative viability (NCI-H23; first compound 0.1265 µM): 1
- relative viability (NCI-H23; first compound 0.4 µM): 0.939
- relative viability (NCI-H23; first compound 1.265 µM): 0.616
- relative viability (SK-LU-1; first compound 0.04 µM): 0.782
- relative viability (SK-LU-1; first compound 0.1265 µM): 0.875
- relative viability (SK-LU-1; first compound 0.4 µM): 0.705
- relative viability (SK-LU-1; first compound 1.265 µM): 0.51
- relative viability (NCI-H2126; first compound 0.04 µM): 1.25
- relative viability (NCI-H2126; first compound 0.1265 µM): 1.12
- relative viability (NCI-H2126; first compound 0.4 µM): 1.16
- relative viability (NCI-H2126; first compound 1.265 µM): 1.2
- relative viability (A-427; first compound 0.04 µM): 0.994
- relative viability (A-427; first compound 0.1265 µM): 1.12
- relative viability (A-427; first compound 0.4 µM): 1.01
- relative viability (A-427; first compound 1.265 µM): 0.786
- relative viability (NCI-H1993; first compound 0.04 µM): 0.788
- relative viability (NCI-H1993; first compound 0.1265 µM): 0.834
- relative viability (NCI-H1993; first compound 0.4 µM): 0.759
- relative viability (NCI-H1993; first compound 1.265 µM): 0.805
